The results in this text go back to publication PMC8471001 (Biosensors, 2021).

pIC50: −log10 of the molar value. Entries after “also recorded” stand apart in the source; their conditions may differ.

Assay [1] addresses tyrosinase (EC 1.14.18.1, from mushroom). Nature of the assay: Amperometric biosensor: tyrosinase immobilized on carbon black paste electrode, inhibition of catechol response. The format is biochemical. As to conditions: for pIC50: 0.1 M phosphate buffer pH 6.8, -0.15 V vs. Ag/AgCl; for pIC50 / type of inhibition: immobilized tyrosinase; for type of inhibition: from shift of inhibition curve, 20 vs 200 µM catechol; for inhibition range of catechol response: 20 µM catechol. As for the experimental part: The immobilization of tyrosinase onto the surface of the carbon black paste electrode (CBPE) was achieved by cross-linking with glutaraldehyde and bovine serum albumin (BSA) as reported elsewhere for several enzyme biosensors. In brief, the enzyme solution was first prepared by mixing 15 µL of Tyr (35 U/mL), 7.5 µL of BSA (1% w/v), and 7.5 µL of glutaraldehyde (0.25% w/v) on a glass slide. Then, 7.5 µL of the mixture was spread on the surface of a CBPE, and lastly, it was dried at room temperature for 1 h. Before electrochemical measurements, the enzyme electrode was placed under stirring for 10 min in PBS buffer to remove the enzyme not firmly immobilized. The electrodes were maintained at 4 °C in phosphate buffer, pH 6.8 until use.
The tyrosinase was immobilized on the surface of the carbon black paste electrode. The electrochemical measurements of o-quinone produced by the tyrosinase-based biosensor, in presence of catechol as substrate, were monitored by an amperometric measurement.
The enzyme activity assays were performed in an electrochemical cell containing 5 mL of 0.1 M phosphate buffer, pH 6.8 at 25 °C. The applied potential was fixed at −0.15 V.
To perform each amperometric measurement, the CBPE-Tyr electrode was dipped into an electrochemical cell containing 5 mL of 0.1 M phosphate buffer solution (pH 6.8) under constant magnetic stirring. The applied potential was fixed to −0.15 V versus Ag/AgCl. Once the baseline was established (10 min approximately), a defined amount of catechol solution was added to the measuring cell. […] Then, the inhibitor solutions were added consecutively each time a plateau was reached (approximately every 30 s). The addition of tyrosinase inhibitors causes an inhibition of the enzyme, consequently decreasing the amount of liberated enzymatic reaction products.
(§1) To evaluate the degree of inhibition (I%) of the tyrosinase activity, signal responses in the absence (I0) and the presence of an inhibitor (I1) were measured with either an electrochemical or colorimetric method. The degree of inhibition (I%) is expressed as follows: (1) I(%)=I0−I1/I0×100
When using the amperometric biosensor, the CBPE/Tyr modified electrode was immersed into a phosphate buffer solution at pH 6.8, under stirring and a fixed potential of −0.15 V. After stabilizing the baseline current, a fixed amount of catechol (substrate) was added to reach a steady-state current (I0) before adding the inhibitor. […] The concentration of inhibitors was increased to inhibit tyrosinase activity, and the current decrease (I1) was recorded.

The test system of assay [2] is mushroom tyrosinase. Nature of the assay: Spectrophotometric progress-curve assay of free tyrosinase with L-tyrosine (half-time reaction t'1/2). The following applies: plot of t'1/2 versus inhibitor concentration at 0.5-3 mM L-tyrosine. Format: biochemical. As for the experimental part:
Substrate conversion was evaluated by measuring the increase in absorbance at 490 nm. The absorbance was sampled every 1 min, allowing each progression curve to be constructed in 40 min.
as §1

The pIC50 is the negative decadic logarithm of the IC50, by convention in mol/L. For the compound `O=C(O)c1ccccc1` [benzoic acid], the pIC50 in assay [1] (20 µM catechol substrate) is 3.92; in assay [1] (200 µM catechol substrate) it was 3.30. Also, the type of inhibition entry in assay [1] was “competed with catechol”. For the same compound, in assay [1] (inhibitor 5 µM to 275 µM), the “inhibition range of catechol response” value was 8–69%.
Consider `O=c1cc(CO)occ1O` [kojic acid], for which the type of inhibition entry in assay [1] was “competitive inhibition; also recorded: competed with catechol”; in assay [2], “competitive inhibition”. The “inhibition range of catechol response” value in assay [1] (inhibitor 2.5 µM to 97.5 µM) was 13–74%.
With `[N-]=[N+]=[N-].[Na+]` [sodium azide], the results for the pIC50 in assay [1] (20 µM catechol substrate) and in assay [1] (200 µM catechol substrate) were 2.83 and 2.70, respectively. Besides, the type of inhibition entry in assay [1] was “competed with catechol”. Besides, the “inhibition range of catechol response” value in assay [1] (inhibitor 0.01 mM to 1.57 mM) is reported as 7–64%.
